The target of this assay is Human Inducible Nitric Oxide Synthase (Homo sapiens, UniProt P35228). Put plainly: Inhibition of human inducible nitric oxide synthase (formation of L-[3H]citrulline from L-[3H]arginine). It is filed as biochemical. The conditions noted are these: 1 μM L-Arg, pH 7.5, room temperature, 30 minutes; for inhibition at 50 µM: 50 μM inhibitor. The text has this: J Lowenstein and S. H. Snyder in Methods in Enzymology, Vol. 233, L. Packer, ed., Academic Press, NY, 1994, Ch.26, pp. 264-269.
Various assays for NOS activity have been reported in the literature and are reviewed in the following: M. E. Murphy and E. Noack in Methods in Enzymology, Vol. 233, L. Packer, ed., Academic Press, NY, 1994, Ch.26, pp. 240-250 and J. M. Hevel and M. A. Marletta in Methods in Enzymology, Vol. 233, L. Packer, ed., Academic Press, NY, 1994, Ch.26, pp. 250-258. Details for the assay protocols to measure NOS activity are as follows:
NOS activity is measured as the formation of L-[2,3,4,5-^3 H]Citrullinefrom L-[2,3,4,5-^3 H]Arginine. The incubation buffer (100 μL) contained; 100 mM TES, pH 7.5, 5 μM FAD, 5 μM FMN, 10 μM BH4, 0.5 mM NADPH, 0.5 mM DTT, 0.5 mg/mL BSA, 2 mM CaCl2, 10 μg/mL calmodulin (bovine), 1 μM L-Arg, 0.2 μCi L-[2,3,4,5-^3 H]Arg, and the inhibitor in aqueous DMSO (max. 5 %). The reaction is initiated by addition of enzyme. Incubations are performed at room temperature for 30 minutes and stopped by the addition of an equal volume of quenching buffer consisting of 200 mM sodium citrate, pH 2.2, 0.02% sodium azide. Reaction products are separated by passing through a cation exchange resin and quantitated as cpm by scintillation counting. Percent inhibition is calculated relative to enzyme incubated without inhibitor according to: % inhibition =[…](cpm L-[2,3,4,5-^3 H]Cit with inhibitor/cpm L-[2,3,4,5-^3 H]Cit without inhibitor).

By IC50 is commonly meant the concentration needed to halve the response being measured. High values mean weaker potency, low ones greater potency. By inhibition is commonly meant the share of the control response that was lost under treatment. Read a low inhibition as a weak effect. Turning to `Cc1ccc(NC(=O)Nc2cc(C)ccn2)cc1` [Example 1, N-(2-(4-Methylpyridyl))-N'-(4-methylphenyl)-urea], the IC50 was < 50 µM and testing at 50 µM gave an inhibition of 54%.

For the molecule `Cc1ccnc(NC(N)=S)c1` [Example 2, N-(2-(4-Methylpyridyl))-thiourea], the IC50 is < 50 µM and at 50 µM the inhibition was 63%.

Turning to `Cc1cc(C)nc(NC(N)=S)c1` [Example 3, N-(2-(4,6-dimethylpyridyl))-thiourea], the IC50 was < 50 µM and the inhibition at 50 µM was 75%.

Regarding `C=CCNC(=S)Nc1ccc(C(F)(F)F)cn1` [Example 4, N-(2-(5-trifluoromethylpyridyl))-N'-allyl-thiourea], the IC50 was < 10 µM and the inhibition at 50 µM was 86%.

Take `C=CCNC(=S)Nc1cc(C)cc(C)n1` [Example 5, N-(2-(4,6-dimethylpyridyl))-N'-allyl-thiourea]: the IC50 is < 50 µM and the inhibition at 50 µM worked out at 51%.

As to `Cc1ccnc(NC(=S)NC(C)C)c1` [Example 6, N-(2-(4-Methylpyridyl))-N'-isopropyl-thiourea], the IC50 is < 1 µM and the inhibition at 50 µM was 100%.

For the molecule `CCNC(=S)Nc1cc(C)ccn1` [Example 7, N-(2-(4-Methylpyridyl))-N'-ethyl-thiourea], the IC50 was < 10 µM.

In turn, `Cc1ccnc(NC(=S)Nc2ccccc2)c1` [Example 8, N-(2-(4-Methylpyridyl))-N'-phenyl-thiourea] returned an inhibition at 50 µM of 50%.

As to `S=C(Nc1ccc(Br)cc1)Nc1ccccn1` [Example 9, N-(2-Pyridyl)-N'-(4-bromophenyl)-thiourea], the IC50 is < 50 µM and the inhibition at 50 µM amounted to 55%.

Consider `Cc1ccnc(NC(=S)Nc2cccc3ccccc23)c1` [Example 10, N-(2-(4-Methylpyridyl))-N'-(1-naphthyl)-thiourea], for which testing at 50 µM gave an inhibition of 54%.

With `Cc1ccnc(NC(=S)Nc2cccc(F)c2)c1` [Example 11, N-(2-(4-Methylpyridyl))-N'-(3-fluorophenyl)-thiourea], the half-maximal inhibitory concentration (IC50) is < 50 µM and at 50 µM the inhibition was 70%.

As for `Cc1ccnc(NC(=S)NCc2ccccc2)c1` [Example 12], the IC50 is < 50 µM and at 50 µM the inhibition was 76%.

With `Cc1ccnc(NC(=S)NC2CC(C)CC(C)(C)C2)c1` (stereo not shown) [Example 13, N-(2-(4-Methylpyridyl))-N'-(3,3,,5-trimethylcyclohexyl)-thiourea], the IC50 was < 50 µM and the inhibition at 50 µM is 57%.

As for `Cc1ccnc(NC(=O)NC(=O)c2ccccc2)c1` [Example 14, N-(2-(4-Methylpyridyl))-N'-benzoyl-urea], the IC50 was < 10 µM and the inhibition at 50 µM came out at 96%.

Consider `Cc1ccnc(NC(=S)NCCC[C@H](N)C(=O)O)c1` [Example 15, N-(2-(4-Methylpyridyl))-N'-(((S)-4-amino-4-carboxy)-n-butyl)-thiourea], for which the half-maximal inhibitory concentration (IC50) was < 10 µM and the inhibition at 50 µM was determined as 85%.

On to `CCN(CC)S(=O)(=O)NC(=O)Nc1ccccn1` [Example 16, N-(2-Pyridyl)-N'-(diethylaminosulfonyl)-urea], for which the IC50 is < 10 µM and the inhibition at 50 µM stood at 55%.

`CCN(CC)S(=O)(=O)NC(=O)Nc1ncccc1C` [Example 17]: the IC50 is < 10 µM.

For `CCN(CC)S(=O)(=O)NC(=O)Nc1cc(C)ccn1` [Example 18], the IC50 was < 1 µM and the inhibition at 50 µM turned out to be 92%.

On to `CCN(CC)S(=O)(=O)NC(=O)Nc1ccc(C)cn1` [Example 19], for which the IC50 was < 50 µM.

On to `CCN(CC)S(=O)(=O)N(C)C(=O)Nc1cc(C)ccn1` [Example 20], for which the IC50 is < 1 µM.

As to `COC(=O)C(=O)Nc1cc(C)ccn1` [Example 21, Oxalamide, N-(4-methyl-2-pyridyl), methyl ester], the IC50 was < 1 µM.

Consider `COC(=O)CC(=O)Nc1cc(C)ccn1` [Example 22, Malonamide, N-(4-methyl-2-pyridyl), methyl ester], for which the IC50 was > 50 µM and the inhibition at 50 µM came out at 57%.

The record behind these values is US5908842A, “Substituted 2-acylamino-pyridines as inhibitors of nitric oxide synthase” (Merck & Co., Inc., priority 1997, dated 1999).
